According to patent publication US7355069B2, “Ortho-substituted benzoic acid derivatives for the treatment of insulin resistance” (AstraZeneca AB, priority 2002, dated 2008):

Target: T1, human PPAR alpha (Homo sapiens, UniProt Q07869)
T1 construct: expressed in transfected cells; host or cells: U2-OS (human osteogenic sarcoma), transient electroporation with pSG5-based expression vector
T1 sequence (Q07869 239-466 limits assumed): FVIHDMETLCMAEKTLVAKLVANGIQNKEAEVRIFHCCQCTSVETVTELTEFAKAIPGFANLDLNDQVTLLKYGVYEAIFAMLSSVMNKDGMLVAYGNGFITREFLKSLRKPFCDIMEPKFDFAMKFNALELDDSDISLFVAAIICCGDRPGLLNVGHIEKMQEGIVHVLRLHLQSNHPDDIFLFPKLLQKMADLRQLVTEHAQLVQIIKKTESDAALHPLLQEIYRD
Experiment: GAL4-PPAR ligand binding domain luciferase reporter transactivation assay in transiently transfected U2-OS cells
Format: cell-based
Conditions: about 24 hours exposure, concentration giving 50% of maximal activation by reference compound (ETYA)
Procedure: Compounds were dissolved in DMSO to obtain 16 mM stock solutions. Before assays, stock solutions were further diluted in DMSO and culture media.
U2-OS, (Osteogenic sarcoma, Human) was purchased from ATCC, USA. Cells were expanded and refrozen in batches from passage number six. Cells were cultured in Dulbecco's modified Eagle medium (DMEM) with 25 mM glucose, 2 mM glutamine or 4 mM L-alanyl-L-glutamine, 10% fetal calf serum, at 5% CO2. Phosphate buffered saline (PBS) without addition of calcium or magnesium was used. All cell culture reagents were from Gibco (USA) and 96-well cell culture plates were purchased from Wallach.
Standard recombinant DNA techniques were carried out as described by Ausubel (7). The Luciferase reporter vector, pGL5UAS (clone consists of five copies of the GAL4 DNA binding sequence, 5′-[…]-3′, cloned into the SacI/XhoI sites of pGL3-Promoter (Promega). The SacI/XhoI fragment carrying the UAS sites was constructed using annealed overlapping oligonucleotides.
Expression vectors used are based upon pSG5 (Stratagene). All vectors contain an EcoRI/NheI fragment encoding the DNA binding domain of GAL4 (encoding amino acid positions 1-145 of database accession number P04386) followed by an in-frame fusion to a fragment encoding the nuclear localisation sequence from T antigen of Polyoma Virus. The nuclear localisation sequence was constructed using annealed overlapping oligonucleotides creating NheI/KpnI sticky ends (5′-[…]-3′). The ligand binding domains from human and mouse PPARα and human and mouse PPARγ were PCR amplified as KpnI/BamHI fragments and cloned in frame to the GAL4 DNA binding domain and the nuclear localisation sequence. The sequence of all plasmid constructs used were confirmed by sequencing.
Frozen stocks of cells from passage number six were thawed and expanded to passage number eight before transfections. Confluent cells were trypsinised, washed and pelleted by centrifugation at 270×g for 2 minutes. The cell pellet was resuspended in cold PBS to a cell concentration of about 18×10^6 cells/ml. After addition of DNA, the cell suspension was incubated on ice for approximately 5 minutes before electroporation at 230 V, 960 μF in Biorad's Gene Pulser™ in 0.5 ml batches. A total of 50 μg DNA was added to each batch of 0.5 ml cells, including 2.5 μg expression vector, 25 μg reporter vector and 22.5 μg unspecific DNA (pBluescript, Stratagene).
After electroporation, cells were diluted to a concentration of 320'000 cells/ml in DMEM without phenol red, and approximately 25'000 cells/well were seeded in 96-well plates. In order to allow cells to recover, seeded plates were incubated at 37° C. for 3-4 hours before addition of test compounds. […]

| EC50 [nM] | Structure (SMILES) |
| --- | --- |
| 163 | CCCCCCCN(Cc1ccc(F)cc1F)C(=O)CCc1ccc(OCc2ccccc2C(=O)O)cc1 [Example 5, 2-[(4-{3-[(2,4-Difluorobenzyl)(heptyl)amino]-3-oxopropyl}phenoxy)methyl]benzoic acid] |
| 168 | CCCN(Cc1ccc(F)cc1F)C(=O)CCc1ccc(OCc2ccccc2C(=O)O)cc1 [Example 10, 2-[(4-{3-[(2,4-difluorobenzyl)(propyl)amino]-3-oxopropyl}phenoxy)methyl]benzoic acid] |
| 26 | CCN(Cc1ccc(C(F)(F)F)cc1)C(=O)Cc1ccc(SCc2ccccc2C(=O)O)cc1 [Example 11, 2-({[4-(2-{Ethyl[4-(trifluoromethyl)benzyl]amino}-2-oxoethyl)phenyl]thio}methyl)benzoic acid] |
| 27 | CCN(Cc1ccc(Cl)cc1)C(=O)Cc1ccc(SCc2ccccc2C(=O)O)cc1 [Example 15, 2-{[(4-{2-[(4-Chlorobenzyl)(ethyl)amino]-2-oxoethyl}phenyl)thio]methyl}benzoic acid] |
